# Data: US20220016112A1, “DIHYDROQUINOXALINE AND DIHYDROPYRIDOPYRAZINE DERIVATIVES AS RSV INHIBITORS” (Enanta Pharmaceuticals, Inc., priority 2020, published 2022)
# Test system: Human RSV-A (“Long” strain)
# Test: RSV in vitro cytoprotection assay in HEp-2 cells (ATPlite readout)
# Type: cell-based
# Conditions: human respiratory syncytial virus, 96 h; HEp-2 cells, genotype A “Long” strain RSV, 4-day incubation, ATPlite; read-out: Human RSV-A (“Long” strain) EC50
# From the text: RSV is a single stranded negative sense RNA virus that causes respiratory tract infections which can be dangerous to infants, the elderly, and immunosuppressed individuals. Currently there is no vaccine, and therapeutic options are both costly and of limited effectiveness. These approved treatments are Ribavirin, and Palivizumab/Synagis (a monoclonal antibody). RSV has two genotypes, A and B, which differ primarily in the structure of the virus' surface “G” attachment protein. Our current primary screen focusses on RSV-A and uses an in vitro cytoprotection assay where compounds are added in 2-fold dilutions to cells which are then subjected to fully replicative viral particles. Cell viability is measured several days later along with separate measurements of compound cytotoxicity. This report focuses on the results of our most recent screening of compounds.
# HEp-2 cells, (originally derived from tumors grown in irradiated-cortisonised weanling rats that had been injected with epidermoid carcinoma tissue from a person's larynx, but later found to be indistinguishable from HeLa cells by PCR DNA analysis), were used for the culturing of genotype A, “Long” strain RSV. Flasks were inoculated with RSV and viral stocks were collected once cytopathic effect (CPE) was greater than 90%. Viral stocks in 25% sucrose media were snap frozen using liquid nitrogen to increase viral stability. Viral stock titers were quantified by tissue culture infectious dose 50% (TCID50) using 8,000 cells per well and 3-fold viral dilutions across a 96-well plate, cultured for 4 days.
# Following extensive parameter testing, the final assay is run as follows: HEp-2 cells are seeded into the inner 60 wells of a 96-well plate at 8,000 cells per well in a volume of 50 μL using Growth Media (DMEM without phenol red, 1% L-Glut, 1% Penn/Strep, 1% nonessential amino acids, 10% FBS). 2-Fold serial dilutions of control and test compounds are added to the wells in duplicate in a total volume of 25 μL. Viral stock is then added to the wells in a volume of 25 μL, bringing the total volume of each well to 100 μL. Each 96-well plate has a control column of 6 wells with cells and virus but no compound (negative control, max CPE), a column with cells but no compound or virus (positive control, minimum CPE), and a column with no cells or virus or compound (background plate/reagent control). The control wells with cells but no virus are given an additional 25 uL of growth media containing an equal quantity of sucrose as those wells receiving the viral stock in order to keep consistent in media and volume conditions. The outer wells of the plate are filled with 125 μL of growth media to act as a thermal and evaporative moat around the test wells. Following a 4-day incubation period, the plates are read using ATPlite (50 uL added per well), which quantifies the amount of ATP (a measure of cell health) present in each well. Assay plates are read using the Envision luminometer. In parallel, cytotoxicity is examined on an additional 96-well plate treated in an identical manner, but substituting the 25 μL of viral stock for 25 μL of growth media. […] EC50 ranges are as follows: A<0.01 μM; B 0.01-0.05 μM; C>0.05 μM.
row,Compound,EC50 [nM]
1,C[C@@H]1C(c2ccc(C(=O)NC3CC3)s2)=Nc2ccccc2N1C(=O)c1ccc(NC(=O)c2cc3c(nc2N2CC4(CCOCC4)C2)CCC3)cc1 [Example 17],< 10
2,Cc1cnc(N2CC3(CCOCC3)C2)c(C(=O)Nc2ccc(C(=O)N3c4ccccc4N=C(c4ccc(C(=O)NC5CC5)s4)[C@@H]3C)cc2)c1 [Example 1],10 to 50
3,Cc1cnc(N2CC3(CCOCC3)C2)c(C(=O)Nc2ccc(C(=O)N3c4ccccc4N=C(c4ccc(C(=O)Nc5c(C)cccc5F)cc4)[C@H]3C)cc2)c1 [Example 26],> 50
4,Cc1cnc(N2CC3(CCOCC3)C2)c(C(=O)Nc2ccc(C(=O)N3c4ncccc4N=C(c4ccc(C(=O)NC5CC5)s4)[C@H]3C)cc2)c1 [Example 30],> 50
5,Cc1cnc(N2CC3(CCOCC3)C2)c(C(=O)Nc2ccc(C(=O)N3c4ccccc4N=C(c4ccc(C(=O)Nc5c(C)cccc5F)s4)[C@@H]3C)cc2)c1 [Example 2],> 50
6,Cc1cnc(N2CC3(CCOCC3)C2)c(C(=O)Nc2ccc(C(=O)N3c4ccccc4N=C(c4ccc(C(=O)NC5(C)CCC5)s4)[C@H]3C)cc2)c1 [Example 11],< 10
7,Cc1ccc(C(=O)Nc2ccc(C(=O)N3c4ccccc4N=C(c4ccc(C(=O)NC5CC5)s4)[C@H]3C)cc2)c(N2CC3(CCOCC3)C2)n1 [Example 15],< 10
8,Cc1cnc(N2CC3(CCOCC3)C2)c(C(=O)Nc2ccc(C(=O)N3c4ccccc4N=C(c4ccc(C(=O)Nc5c(C)cccc5F)s4)[C@H]3C)cc2)c1 [Example 7],10 to 50
9,C[C@@H]1C(c2ccc(C(=O)NC3CCC3)s2)=Nc2ccccc2N1C(=O)c1ccc(NC(=O)c2cc(C3CC3)cnc2N2CC3(CCOCC3)C2)cc1 [Example 20],< 10
10,CCc1cnc(N2CC3(CCOCC3)C2)c(C(=O)Nc2ccc(C(=O)N3c4ccccc4N=C(c4ccc(C(=O)NC5CC5)s4)[C@H]3C)cc2)c1 [Example 21],< 10
11,Cc1cnc(N2CC3(CCOCC3)C2)c(C(=O)Nc2ccc(C(=O)N3c4ccccc4N=C(c4ccc(C(=O)Nc5c(C)cccc5F)cc4)[C@@H]3C)cc2)c1 [Example 5],> 50
12,Cc1cnc(N2CC3(CCOCC3)C2)c(C(=O)Nc2ccc(C(=O)N3c4ccccc4N=C(c4ccc(C(=O)NC5CCC5)s4)[C@H]3C)cc2)c1 [Example 9],< 10
13,Cc1cnc(N2CC3(CCOCC3)C2)c(C(=O)Nc2ccc(C(=O)N3c4ccccc4N=C(c4ccc(C(=O)Nc5ncccc5F)s4)[C@H]3C)cc2)c1 [Example 14],10 to 50
14,C[C@@H]1C(c2ccc(C(=O)NC3CC3)s2)=Nc2ccccc2N1C(=O)c1ccc(NC(=O)c2cc(C3CC3)cnc2N2CC3(CCOCC3)C2)cc1 [Example 19],< 10
15,Cc1cnc(N2CC3(CCOCC3)C2)c(C(=O)Nc2ccc(C(=O)N3c4ccccc4N=C(c4ccc(C(=O)NC5CCC5)s4)C3(C)C)cc2)c1 [Example 28],< 10
16,Cc1cnc(N2CC3(CCOCC3)C2)c(C(=O)Nc2ccc(C(=O)N3c4ccccc4N=C(c4ccc(C(=O)NC5CC5)cc4)[C@@H]3C)cc2)c1 [Example 4],> 50

row,Compound,EC50 [nM]
1,C[C@@H]1C(c2ccc(C(=O)NC3CC3)s2)=Nc2ccccc2N1C(=O)c1ccc(NC(=O)c2cc(C(F)(F)F)cnc2N2CC3(CCOCC3)C2)cc1 [Example 23],10 to 50
2,Cc1ccc(C(=O)Nc2ccc(C(=O)N3c4ccccc4N=C(c4ccc(C(=O)NC5CCC5)s4)[C@H]3C)cc2)c(N2CC3(CCOCC3)C2)n1 [Example 16],< 10
3,C[C@@H]1C(c2ccc(C(=O)NC3CCC3)s2)=Nc2ccccc2N1C(=O)c1ccc(NC(=O)c2cc3c(nc2N2CC4(CCOCC4)C2)CCC3)cc1 [Example 18],< 10
4,CCc1cnc(N2CC3(CCOCC3)C2)c(C(=O)Nc2ccc(C(=O)N3c4ccccc4N=C(c4ccc(C(=O)NC5CCC5)s4)[C@H]3C)cc2)c1 [Example 22],< 10
5,Cc1cnc(N2CC3(CCOCC3)C2)c(C(=O)Nc2ccc(C(=O)N3c4ccccc4N=C(c4ccc(C(=O)NC5CC5)s4)[C@H]3C)cc2)c1 [Example 6],< 10
6,Cc1cnc(N2CC3(CCOCC3)C2)c(C(=O)Nc2ccc(C(=O)N3c4ccccc4N=C(c4ccc(C(=O)NC56CC(C5)C6)s4)[C@H]3C)cc2)c1 [Example 12],< 10
7,Cc1cnc(N2CC3(CCOCC3)C2)c(C(=O)Nc2ccc(C(=O)N3c4ccccc4N=C(c4ccc(C(=O)NC5CC5)cc4)[C@H]3C)cc2)c1 [Example 25],> 50
8,C[C@@H]1C(c2ccc(C(=O)NC3CCC3)s2)=Nc2ccccc2N1C(=O)c1ccc(NC(=O)c2cc(C(F)(F)F)cnc2N2CC3(CCOCC3)C2)cc1 [Example 24],10 to 50
9,Cc1cnc(N2CC3(CCOCC3)C2)c(C(=O)Nc2ccc(C(=O)N3c4ccccc4N=C(c4ccc(C(=O)NC5CC5)s4)C3(C)C)cc2)c1 [Example 27],> 50
10,Cc1cnc(N2CC3(CCOCC3)C2)c(C(=O)Nc2ccc(C(=O)N3c4ccccc4N=C(c4ccc(C(=O)NC5(C)CC5)s4)[C@H]3C)cc2)c1 [Example 8],< 10
11,Cc1cnc(N2CC3(CCOCC3)C2)c(C(=O)Nc2ccc(C(=O)N3c4ccccc4N=C(c4ccc(C(=O)NC5CCC5)s4)[C@@H]3C)cc2)c1 [Example 3],> 50
12,Cc1cnc(N2CC3(CCOCC3)C2)c(C(=O)Nc2ccc(C(=O)N3c4ccccc4N=C(c4ccc(C(=O)NC5CC(F)(F)C5)s4)[C@H]3C)cc2)c1 [Example 10],10 to 50
13,Cc1cnc(N2CC3(CCOCC3)C2)c(C(=O)Nc2ccc(C(=O)N3c4ccccc4N=C(c4ccc(C(=O)NC56CC(C)(C5)C6)s4)[C@H]3C)cc2)c1 [Example 13],< 10
14,Cc1cnc(N2CC3(CCOCC3)C2)c(C(=O)Nc2ccc(C(=O)N3c4cccnc4N=C(c4ccc(C(=O)NC5CCC5)s4)[C@H]3C)cc2)c1 [Example 29],10 to 50
15,Cc1cnc(N2CC3(CCOCC3)C2)c(C(=O)Nc2ccc(C(=O)N3c4ncccc4N=C(c4ccc(C(=O)NC5CCC5)s4)[C@H]3C)cc2)c1 [Example 31],10 to 50

# Same assay, conditions: human respiratory syncytial virus, HEp-2
row,Compound,EC50 [nM]
1,"O=C(Nc1ccccc1F)N[C@H]1N=C(c2ccccc2)c2ccccc2NC1=O [RSV-604, reference compound]",~2400
